Assay results taken from patent publication US20120101099A1, “HISTONE DEACETYLASE INHIBITORS” (ANTHEM BIOSCIENCES PRIVATE LIMITED, priority 2009, published 2012).
Values after ≈ are worked out from the molar mass of the structure shown. Like-named read-outs stand apart in the source and are kept apart here.

Columns and labels:
NCI-H460 = test: Cell proliferation assay (MTT); assay type: cell-based; settings: Homo sapiens
Summary of the method: (§1)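 MTT read-out, A570 after 3 h dye incubation and DMSO solubilisation. Percentage growth vs T0 plate measured at time of dosing; GI50 interpolated from growth curves.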

PA-1 = test: Cell proliferation assay (MTT); assay type: cell-based; settings: Homo sapiens
Summary of the method: as §1

[1] = Absolute aqueous solubility; assay type: physicochemical; settings: 25 °C, thermodynamic from solid; water, about 6 hrs equilibration, 25 deg centigrade, UV
Procedure: The objective of the study was to determine the absolute solubility of the powder form of the test compounds in water. Brief procedure: The powder form of test compounds was allowed to saturate in an aqueous medium and is equilibrated for about 6 hrs until the compound precipitates. The precipitated solution was centrifuged at 15,000 rpm for 10 mins at 25 deg centigrade and the supernatant solution was analyzed by UV spectrometry. If required the supernatant was diluted further until the absorbance by UV spectroscopy was within the limits of the standard curve obtained with the test compound. λmax was selected from UV spectra having maximum absorbance for that compound.

CYP 3A4 = molecular target: T1, CYP 3A4 (Homo sapiens, UniProt P08684); test: Cytochrome-P450 isoforms liability determination; assay type: in vitro ADME; settings: fluorescence based kit
T1 construct: purchased
T1 sequence (P08684 whole entry, canonical isoform): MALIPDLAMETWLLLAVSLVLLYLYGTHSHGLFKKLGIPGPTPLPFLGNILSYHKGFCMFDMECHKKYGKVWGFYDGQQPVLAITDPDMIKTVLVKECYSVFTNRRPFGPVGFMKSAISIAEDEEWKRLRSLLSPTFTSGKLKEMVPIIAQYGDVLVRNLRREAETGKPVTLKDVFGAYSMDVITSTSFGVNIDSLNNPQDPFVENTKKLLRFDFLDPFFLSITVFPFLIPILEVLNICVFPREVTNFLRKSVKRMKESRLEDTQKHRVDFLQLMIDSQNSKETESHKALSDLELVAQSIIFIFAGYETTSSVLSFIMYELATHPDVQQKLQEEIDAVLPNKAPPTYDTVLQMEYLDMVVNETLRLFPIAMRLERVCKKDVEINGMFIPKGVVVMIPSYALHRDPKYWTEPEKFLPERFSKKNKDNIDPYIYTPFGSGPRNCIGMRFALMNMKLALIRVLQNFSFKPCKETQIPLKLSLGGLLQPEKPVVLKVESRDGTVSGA
Procedure: To determine the test compound liability towards Human cytochrome 450 (hCYP450) Isoforms fluorescence based screening kits.
Brief procedure: 2× test compounds were prepared by dilution with deionized water. A serial dilution of the test compound was done. 2× solution of known inhibitor were used as a positive control. 40 μL of the 2× solution that is prepared was added to the desired wells. Two replicates were included for every compound. 50 μL of the Master premix (premix of CYP450 Baclosomes, reagents and regenerating system) was dispensed into each well. The plate was incubated for 20 min at room temperature to allow the compounds to interact with the CYP450enzymes. The reaction was started by adding 10 μL of the substrate and NADP^+ mixture. The plate was incubated for the desired amount of time, and then 10 μL of stop reagent was added to each well to quench the reaction. The fluorescence was measured in the fluorescent plate reader at excitation and emission wavelengths as recommended, depending on the substrate used.

A431 = test: Anti-proliferative activity (GI50); assay type: cell-based; settings: Homo sapiens
Procedure: (§2) Cells were seeded in a 96-well cell culture plates at a concentration of 10,000 cells per well and incubated at 37° C. in CO2 incubator.
(§3) Twenty-four hours later cells were treated with different concentrations (100, 10, 1, 0.1, and 0.01 μM) of compound dissolved in DMSO and incubated for 48 hours. For To measurement, 24 hours after seeding the cells, 20 μL of 3-(4.5-dimethyl-2- thiazolyl)-2,5-diphenyl-2H-tetrazolium (MTT) solution per well was added to the T0 plate and incubated for 3 hours at 37° C. in a CO2 incubator.
(§4) The plate containing cells and test compounds was treated similarly after 48 hours of incubation. After 3 hours of MTT addition, well contents were aspirated carefully followed by addition of 100 μL DMSO per well. Plates were agitated to ensure dissolution of the formazan crystals in DMSO and absorbance was read at 570 nm (A570). […] From the percentage growths a dose response curve was generated and GI50 values were interpolated from the growth curves.

ACHN = test: Anti-proliferative activity (GI50); assay type: cell-based; settings: Homo sapiens, read-out: Anti-proliferative activity (GI50) ACHN
Procedure: as §2, §3, §4

Calu-6 = test: Anti-proliferative activity (GI50); assay type: cell-based; settings: Homo sapiens
Procedure: as §2, §3, §4

Colo-205 = test: Anti-proliferative activity (GI50); assay type: cell-based; settings: Homo sapiens
Procedure: as §2, §3, §4

DU-145 = test: Anti-proliferative activity (GI50); assay type: cell-based; settings: Homo sapiens
Procedure: as §2, §3, §4

HCT-116 = test: Anti-proliferative activity (GI50); assay type: cell-based; settings: Homo sapiens
Procedure: as §2, §3, §4

HCT-15 = test: Anti-proliferative activity (GI50); assay type: cell-based; settings: Homo sapiens
Procedure: as §2, §3, §4

Hela-S3 = test: Anti-proliferative activity (GI50); assay type: cell-based; settings: Homo sapiens
Procedure: as §2, §3, §4

IMR-32 = test: Anti-proliferative activity (GI50); assay type: cell-based; settings: Homo sapiens
Procedure: as §2, §3, §4

K562 = test: Anti-proliferative activity (GI50); assay type: cell-based; settings: Homo sapiens
Procedure: as §2, §3, §4

KHOS = test: Anti-proliferative activity (GI50); assay type: cell-based; settings: read-out: Anti-proliferative activity (GI50) KHOS
Procedure: as §2, §3, §4

RPMI-8226 = test: Anti-proliferative activity (GI50); assay type: cell-based; settings: Homo sapiens
Procedure: as §2, §3, §4

SH-SY-5Y = test: Anti-proliferative activity (GI50); assay type: cell-based; settings: Homo sapiens, SH-SY5Y, read-out: Anti-proliferative activity (GI50) SH-SY-5Y
Procedure: as §2, §3, §4

U-87-MG = test: Anti-proliferative activity (GI50); assay type: cell-based; settings: Homo sapiens, read-out: Anti-proliferative activity (GI50) U-87-MG
Procedure: as §2, §3, §4

cleaved PARP = test: PARP cleavage in HeLa cells (Western Blot); assay type: cell-based; set-up: key: represented by the symbol ‘+’ which indicates the relative extent of modulation; ++: represented by the symbol ‘+’ which indicates the relative extent of modulation; +++: represented by the symbol ‘+’ which indicates the relative extent of modulation; ++++: represented by the symbol ‘+’ which indicates the relative extent of modulation; settings: 24 hrs, 0.03-3.0 μM
Procedure: HeLa Cells were seeded (0.3×10^6 Cells/well) into a 6 well plate and after 24 hrs compounds were added in 5 different concentrations (0.03, 0.1, 0.3, 1.0, 3.0 μM). After 24 hrs cells were lysed and cellular extract was used for assessing apoptotic activity by detection of cleaved PARP by Western Blot using monoclonal Anti-poly(ADP-Ribose) polymerase antibody, Clone C-2-10(Sigma).

[2] = Table 9, Lung, read-out: Anti-proliferative activity (GI50) NCI-H460
[3] = Table 1, MTT, 48 hours, read-out: Cell growth inhibition (GI50 in μM) PA-1
[4] = Table 9, Ovary, read-out: Anti-proliferative activity (GI50) PA-1
[5] = A-431, Table 9, Skin, read-out: Anti-proliferative activity (GI50) A431
[6] = Calu-6, Table 9, Lung, read-out: Anti-proliferative activity (GI50) Calu-6
[7] = COLO 205, Table 9, Colon, read-out: Anti-proliferative activity (GI50) Colo-205
[8] = DU-145, Table 9, Prostate, read-out: Anti-proliferative activity (GI50) DU-145
[9] = HCT-116, Table 9, Colon, read-out: Anti-proliferative activity (GI50) HCT-116
[10] = HCT-15, Table 9, Colon, read-out: Anti-proliferative activity (GI50) HCT-15
[11] = HeLa S3, Table 9, Cervix, read-out: Anti-proliferative activity (GI50) Hela-S3
[12] = IMR-32, Table 9, Brain, read-out: Anti-proliferative activity (GI50) IMR-32
[13] = K562, Table 9, Leukemia, read-out: Anti-proliferative activity (GI50) K562
[14] = RPMI-8226, Table 9, Leukemia, read-out: Anti-proliferative activity (GI50) RPMI-8226

solubility [1] | Compound | GI50 (NCI-H460; [2]) | GI50 (PA-1; [3]) | GI50 (PA-1; [4]) | IC50 (CYP 3A4) | GI50 (A431; [5]) | GI50 (ACHN; Table 9, Renal) | GI50 (Calu-6; [6]) | GI50 (Colo-205; [7]) | GI50 (DU-145; [8]) | GI50 (HCT-116; [9]) | GI50 (HCT-15; [10]) | GI50 (Hela-S3; [11]) | GI50 (IMR-32; [12]) | GI50 (K562; [13]) | GI50 (KHOS; Table 9, Bone) | GI50 (RPMI-8226; [14]) | GI50 (SH-SY-5Y; Table 9, Brain) | GI50 (U-87-MG; Table 9, Brain) | PARP cleavage (cleaved PARP) | further results
4700 µg/mL (≈ 11.9 mM) | O=C(NO)c1ccc(Cn2cc(-c3ccc(CN4CCOCC4)cc3)nn2)cc1 [Example 9, N-Hydroxy-4-[4-(4-morpholin-4-ylmethyl-phenyl)-[1,2,3]triazol-1-ylmethyl]-benzamide] | 2.4 ± 0.85 µM | 0.22 ± 0.03 µM | 0.2 ± 0.037 µM | 43.2 µM | 1200 ± 533 nM | 700 ± 110 nM | 1400 ± 310 nM | 300 ± 71 nM | 300 ± 124 nM | 1200 ± 18 nM | 4100 ± 3200 nM | 600 ± 160 nM | 900 ± 201 nM | 300 ± 74 nM | 2800 ± 360 nM | 500 ± 430 nM | 200 ± 60 nM | 2700 ± 740 nM | +++ | –
230 µg/mL (≈ 0.87 mM) | O=C(CCCCCCC(=O)Nc1ccccc1)NO [SAHA, Suberoylanilide Hydroxamic Acid, reference compound] | – | – | – | – | – | – | – | – | – | – | – | – | – | – | – | – | – | – | ++ | GI50 (A431; A-431, read-out: Anti-proliferative activity (GI50) A431): 1900 ± 1000 nM; GI50 (ACHN): 1600 ± 500 nM; GI50 (Calu-6; Calu-6, read-out: Anti-proliferative activity (GI50) Calu-6): 3500 ± 500 nM; GI50 (Colo-205; COLO 205, read-out: Anti-proliferative activity (GI50) Colo-205): 1600 ± 100 nM; GI50 (DU-145; DU-145, read-out: Anti-proliferative activity (GI50) DU-145): 1300 nM; GI50 (HCT-116; HCT-116, read-out: Anti-proliferative activity (GI50) HCT-116): 2200 nM; GI50 (HCT-15; HCT-15, read-out: Anti-proliferative activity (GI50) HCT-15): 5200 ± 1900 nM; GI50 (Hela-S3; HeLa S3, read-out: Anti-proliferative activity (GI50) Hela-S3): 2900 ± 500 nM; GI50 (IMR-32; IMR-32, read-out: Anti-proliferative activity (GI50) IMR-32): 1800 ± 200 nM; GI50 (K562; K562, read-out: Anti-proliferative activity (GI50) K562): 2200 ± 700 nM; GI50 (KHOS): 29300 ± 7200 nM; GI50 (RPMI-8226; RPMI-8226, read-out: Anti-proliferative activity (GI50) RPMI-8226): 2200 ± 2300 nM; GI50 (SH-SY-5Y): 800 ± 400 nM; GI50 (U-87-MG): 6700 ± 1100 nM

Compound | solubility [1] | GI50 (NCI-H460; [2]) | GI50 (PA-1; [3]) | GI50 (PA-1; [4]) | IC50 (CYP 3A4) | GI50 (A431; [5]) | GI50 (ACHN; Table 9, Renal) | GI50 (Calu-6; [6]) | GI50 (Colo-205; [7]) | GI50 (DU-145; [8]) | GI50 (HCT-116; [9]) | GI50 (HCT-15; [10]) | GI50 (Hela-S3; [11]) | GI50 (IMR-32; [12]) | GI50 (K562; [13]) | GI50 (KHOS; Table 9, Bone) | GI50 (RPMI-8226; [14]) | GI50 (SH-SY-5Y; Table 9, Brain) | GI50 (U-87-MG; Table 9, Brain) | PARP cleavage (cleaved PARP) | further results
O=C(NO)c1ccc(Cn2cc(-c3ccc(CN4CCCC4)cc3)nn2)cc1 [Example 8, N-Hydroxy-4-[4-(4-pyrrolidin-1-ylmethyl-phenyl)-[1,2,3]triazol-1-ylmethyl]-benzamide] | 5100 µg/mL (≈ 13.5 mM) | 1.9 ± 0.75 µM | 0.15 ± 0.05 µM | 0.1 ± 0.01 µM | 28.3 µM | 500 ± 130 nM | 300 ± 140 nM | 600 ± 330 nM | 300 ± 50 nM | 200 ± 60 nM | 100 ± 40 nM | 19300 ± 3800 nM | 400 ± 90 nM | 400 ± 90 nM | 300 ± 60 nM | 2400 ± 400 nM | 400 ± 300 nM | 200 ± 80 nM | 500 ± 90 nM | +++ | GI50 (NCI-H460; Table 1, MTT, 48 hours, read-out: Cell growth inhibition (GI50 in μM) NCI H460): 2.1 µM
